From PubChem BioAssay AID1963844 (Molecular Pharmacology Branch, DTP, NCI, 2024)

Tested on: 422866-222-R5-J1-PDC complex spheroid viability
Test: Anticancer human tumor 422866-222-R5-J1-PDC patient-derived pancreatic adenocarcinoma cell line growth inhibition [POLQ]
Conditions: for IC50: curve of first compound; for viability, T/C: stronger effect = lower value
Method in brief: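 PDC + HUVEC + MSC complex spheroids; POLQ inhibitors ± partner drugs; top conc. at/near clinical Cmax, else 10 microM (SN-38 1 microM), half-log dilutions; 37 degrees C, 5% CO2.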

[1] = second compound 0.0316 µM, first compound 0.0316 µM
[2] = second compound 0.0316 µM, first compound 0.1 µM
[3] = second compound 0.0316 µM, first compound 0.316 µM
[4] = second compound 0.0316 µM, first compound 1 µM
[5] = second compound 0.0316 µM, first compound 3.16 µM
[6] = second compound 0.0316 µM, first compound 10 µM
[7] = second compound 0.1 µM, first compound 0.0316 µM
[8] = second compound 0.1 µM, first compound 0.1 µM
[9] = second compound 0.1 µM, first compound 0.316 µM
[10] = second compound 0.1 µM, first compound 1 µM
[11] = second compound 0.1 µM, first compound 3.16 µM
[12] = second compound 0.1 µM, first compound 10 µM
[13] = second compound 0.316 µM, first compound 0.0316 µM
[14] = second compound 0.316 µM, first compound 0.1 µM
[15] = second compound 0.316 µM, first compound 0.316 µM
[16] = second compound 0.316 µM, first compound 1 µM
[17] = second compound 0.316 µM, first compound 3.16 µM
[18] = second compound 0.316 µM, first compound 10 µM
[19] = second compound 1 µM, first compound 0.0316 µM
[20] = second compound 1 µM, first compound 0.1 µM
[21] = second compound 1 µM, first compound 0.316 µM
[22] = second compound 1 µM, first compound 1 µM
[23] = second compound 1 µM, first compound 3.16 µM
[24] = second compound 1 µM, first compound 10 µM
[25] = second compound 3.16 µM, first compound 0.0316 µM
[26] = second compound 3.16 µM, first compound 0.1 µM
[27] = second compound 3.16 µM, first compound 0.316 µM
[28] = second compound 3.16 µM, first compound 1 µM
[29] = second compound 3.16 µM, first compound 3.16 µM
[30] = second compound 3.16 µM, first compound 10 µM
[31] = second compound 10 µM, first compound 0.0316 µM
[32] = second compound 10 µM, first compound 0.1 µM
[33] = second compound 10 µM, first compound 0.316 µM
[34] = second compound 10 µM, first compound 1 µM
[35] = second compound 10 µM, first compound 3.16 µM
[36] = second compound 10 µM, first compound 10 µM
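Also: spheroids exposed to compounds for one week before readout.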
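For viability, T/C in this document: percent of DMSO vehicle wells luminescence so 100% = untreated viability.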

## CC(C)n1c(=O)n(C)c2cnc3cc(F)c(-c4ccc(OCCCN5CCCCC5)nc4)cc3c21 + COC1C(OC(N)=O)C(O)C(Oc2ccc3c(O)c(NC(=O)c4ccc(O)c(CC=C(C)C)c4)c(=O)oc3c2C)OC1(C)C
Second compound 0.0316 µM
  IC50: < 31.6 nM
Second compound 0.1 µM
  IC50: < 31.6 nM
Second compound 0.316 µM
  IC50: < 31.6 nM
Second compound 1 µM
  IC50: < 31.6 nM
Second compound 3.16 µM
  IC50: < 31.6 nM
Second compound 10 µM
  IC50: < 31.6 nM
[1]
  viability, T/C: 40.7%
[2]
  viability, T/C: 36.1%
[3]
  viability, T/C: 34.5%
[4]
  viability, T/C: 38.5%
[5]
  viability, T/C: 39.4%
[6]
  viability, T/C: 37.2%
[7]
  viability, T/C: 42.6%
[8]
  viability, T/C: 38.5%
[9]
  viability, T/C: 39.1%
[10]
  viability, T/C: 37.8%
[11]
  viability, T/C: 36.9%
[12]
  viability, T/C: 36.2%
[13]
  viability, T/C: 40.6%
[14]
  viability, T/C: 36.1%
[15]
  viability, T/C: 42.4%
[16]
  viability, T/C: 44.7%
[17]
  viability, T/C: 34%
[18]
  viability, T/C: 30.2%
[19]
  viability, T/C: 34.6%
[20]
  viability, T/C: 45.8%
[21]
  viability, T/C: 37.2%
[22]
  viability, T/C: 38.6%
[23]
  viability, T/C: 39.2%
[24]
  viability, T/C: 32.1%
[25]
  viability, T/C: 44%
[26]
  viability, T/C: 40%
[27]
  viability, T/C: 42.3%
[28]
  viability, T/C: 33.4%
[29]
  viability, T/C: 35.4%
[30]
  viability, T/C: 39.6%
[31]
  viability, T/C: 39.1%
[32]
  viability, T/C: 39%
[33]
  viability, T/C: 38.8%
[34]
  viability, T/C: 43.4%
[35]
  viability, T/C: 35.2%
[36]
  viability, T/C: 32.6%

## CC1COCCN1c1cc(-c2ccnn2C)c2ccnc(-c3ccn[nH]3)c2n1 (stereo unspecified) + COC1C(OC(N)=O)C(O)C(Oc2ccc3c(O)c(NC(=O)c4ccc(O)c(CC=C(C)C)c4)c(=O)oc3c2C)OC1(C)C
Second compound 0.0316 µM
  IC50: > 10000 nM
Second compound 0.1 µM
  IC50: > 10000 nM
Second compound 0.316 µM
  IC50: > 10000 nM
Second compound 1 µM
  IC50: > 10000 nM
Second compound 3.16 µM
  IC50: > 10000 nM
Second compound 10 µM
  IC50: > 10000 nM
[1]
  viability, T/C: 87.7%
[2]
  viability, T/C: 62%
[3]
  viability, T/C: 42.2%
[4]
  viability, T/C: 40%
[5]
  viability, T/C: 85.1%
[6]
  viability, T/C: 67.3%
[7]
  viability, T/C: 90.1%
[8]
  viability, T/C: 52.9%
[9]
  viability, T/C: 39.8%
[10]
  viability, T/C: 46.1%
[11]
  viability, T/C: 87.3%
[12]
  viability, T/C: 79.7%
[13]
  viability, T/C: 96.5%
[14]
  viability, T/C: 51.9%
[15]
  viability, T/C: 35.3%
[16]
  viability, T/C: 39%
[17]
  viability, T/C: 88.5%
[18]
  viability, T/C: 77%
[19]
  viability, T/C: 77.5%
[20]
  viability, T/C: 58.1%
[21]
  viability, T/C: 43.3%
[22]
  viability, T/C: 34.5%
[23]
  viability, T/C: 77.9%
[24]
  viability, T/C: 63.5%
[25]
  viability, T/C: 82.6%
[26]
  viability, T/C: 64.6%
[27]
  viability, T/C: 39.9%
[28]
  viability, T/C: 32%
[29]
  viability, T/C: 88.1%
[30]
  viability, T/C: 78.4%
[31]
  viability, T/C: 82.7%
[32]
  viability, T/C: 55.2%
[33]
  viability, T/C: 46.2%
[34]
  viability, T/C: 33.2%
[35]
  viability, T/C: 81.1%
[36]
  viability, T/C: 71.7%

## CC1COCCN1c1cc(C2(S(C)(=N)=O)CC2)nc(-c2ccnc3[nH]ccc23)n1 (stereo unspecified) + COC1C(OC(N)=O)C(O)C(Oc2ccc3c(O)c(NC(=O)c4ccc(O)c(CC=C(C)C)c4)c(=O)oc3c2C)OC1(C)C
Second compound 0.0316 µM
  IC50: 2670 nM
Second compound 0.1 µM
  IC50: 2910 nM
Second compound 0.316 µM
  IC50: 2830 nM
Second compound 1 µM
  IC50: 2940 nM
Second compound 3.16 µM
  IC50: 2560 nM
Second compound 10 µM
  IC50: 4120 nM
[1]
  viability, T/C: 102%
[2]
  viability, T/C: 111%
[3]
  viability, T/C: 88.4%
[4]
  viability, T/C: 75.6%
[5]
  viability, T/C: 43.9%
[6]
  viability, T/C: 34.1%
[7]
  viability, T/C: 104%
[8]
  viability, T/C: 103%
[9]
  viability, T/C: 91.6%
[10]
  viability, T/C: 75.4%
[11]
  viability, T/C: 46.6%
[12]
  viability, T/C: 34.8%
[13]
  viability, T/C: 95.8%
[14]
  viability, T/C: 91%
[15]
  viability, T/C: 92.5%
[16]
  viability, T/C: 71.8%
[17]
  viability, T/C: 48%
[18]
  viability, T/C: 44.1%
[19]
  viability, T/C: 91.3%
[20]
  viability, T/C: 97.7%
[21]
  viability, T/C: 101%
[22]
  viability, T/C: 69.4%
[23]
  viability, T/C: 54.9%
[24]
  viability, T/C: 39.8%
[25]
  viability, T/C: 107%
[26]
  viability, T/C: 99%
[27]
  viability, T/C: 104%
[28]
  viability, T/C: 77.7%
[29]
  viability, T/C: 44.4%
[30]
  viability, T/C: 39.8%
[31]
  viability, T/C: 97.1%
[32]
  viability, T/C: 99.5%
[33]
  viability, T/C: 112%
[34]
  viability, T/C: 75.5%
[35]
  viability, T/C: 58.7%
[36]
  viability, T/C: 33%
